Like-named read-outs stand apart in the source and are kept apart here.
Key:
[1] = system: phosphorylated cAMP response element binding protein (pCREB)
Description: The L4-5 spinal cord segments and the ipsilateral and contralateral sciatic nerve segments at both proximal and mid-thigh levels were removed and postfixed in the same fixative for 3-6 hours. Then all tissues were transferred to 30% sucrose in 0.1 M PB at 40° C. for cryoprotection. The spinal cord segments were cut on a cryostat at a 40 μm thickness. The free-floating sections were collected in PBS. After being pre-treated with 0.3% H 202 and 10% normal goat serum (NGS, Vector Laboratories, Burlingame, Calif.), sections were incubated for 36 hours at 40° C. in a rabbit polyclonal anti-phospho-CREB antibody (1:1,000, New England Biolabs, Beverly, Mass., U.S.A.) diluted in phosphate buffered saline containing 0.3% Triton-×100 (PBS+T) and 3% NGS. Subsequently, the sections were incubated in biotinylated goat anti-rabbit IgG (Vector) and further processed using Elite Vectastain ABC kit (Vector) according to the instructions of the manufacturer. Between each incubation, sections were washed in PBS+T (15 min twice). Finally, the immunoprecipitates were developed by 3,-3′ diaminobenzedine (DAB) and the chromogen was enhanced by the glucose oxidase-nickel-3,-3′ DAB method.
Images of both ipsilateral and contralateral dorsal horns of nerve injured rats or from the dorsal horn of normal rats were captured at ×250 magnification using a CCD camera. In a given area (235 μm×235 μm), which covered the entire LI to LII in depth and was located in the middle one third of the mediolateral extent of the dorsal horn, the number of pixels occupied by pCREB-IR cells on each side was measured automatically using image analysis software (SigmaScan, Jandel Scientific Inc., San Rafael, Calif., U.S.A.). Values are expressed as mean+SEM. Groups were compared using two-way ANOVA followed by Dunnett's or Fishers LSD test. To compare the mean number of the pixels occupied by pCREB-IR cells between two-side dorsal horn, a paired t-test or one-way ANOVA with Student-Newman-Keuls multiple comparison method was used. P<0.05 was considered significant.

[2] = system: mechanical allodynia in rats with partial ligation of sciatic nerve
Description: A validated animal model of neuropathic pain was used that results from a partial ligation of one sciatic nerve in rat (Seltzer 1990). Nerve ligation and subsequent edema represents an experimental model for mechanisms operative in both nociceptive nerve pain and pain due to partial deafferentation (Asbury A, Fields H. Pain due to peripheral nerve damage: an hypothesis. Neurology 1984; 34: 1587-1590). This model thereby closely mimics the clinical situation found in several cancerous patients.
(§1) After Institutional Animal Care Committee approval, adult male Wistar rats (Hanovre, weight 150 -180 g) underwent partial sciatic nerve ligation of the right sciatic nerve as described by Seltzer et al (Seltzer 1990). Briefly, under halothane anesthesia, the right sciatic nerve was exposed at high-thigh level and liberated from surrounding tissues. One third to one half of the nerve was then tightly ligated with silicon-treated silk suture (Prolene 7-0) before those muscle and skin layers were closed. The animals were allowed to recover for four to six weeks, lag of time sufficient to develop neuropathic pain features.
Mechanical allodynia was assessed by application of calibrated Von Frey filaments (Stoelting, Wood Dale, Ill.), ranging from 1.2 g to 28.8 g.
The animals were placed on a plastic mesh floor into individual boxes. After accommodation to the environment, the Von Frey filaments were applied vertically to the plantar surface of the ligated hind paw and gently bent 3-4 times over approximately 2 sec. if no response was elicited, a larger filament was applied in the same manner. The filaments were applied in increasing order until a brisk withdrawal or paw flinching occurred, that was considered as a positive response. The filament applications were repeated three times, with five to ten minutes interval between testing. The withdrawal threshold was determined as the mean of the three values.
(§2) Only the animals which had developed satisfactory Mechanical Allodynia and Thermal Hyperalgesia were used to assess the efficacy of peripheral nerve blockade.
(§3) The rats were anesthetized with 4% halothane inhaled concentration in 100% oxygen by face mask. An unilateral percutaneous sciatic nerve block was then performed on the right ligated side. A 25-gauge needle was introduced between the greater trochanter and the ischial tuberosity, both landmarks previously localized by palpation, according to the technique reported by Thalhammer (Thalhammer JG, et al Neurologic evaluation of the rat during sciatic nerve block with lidocaine. Anesthesiology. 1995 Apr;82(4):1013-25). Different mixtures of saline and alpha-2-adrenergic agonist were then injected in a total volume of 0.3 ml.
A single sciatic block (SB) injection of the following drugs was realized: Saline (n=6), Saline and intramuscular (IM) clonidine 30 μg (n=11), Clonidine 15 μg (n=8), Clonidine 3 μg (n=9). The drug used in the study for peripheral nerve block was: clonidine marketed for clinical use (Catapressan®, Boehringer Ingelheim). The drug was diluted in isotonic saline.
The animals were tested as previously described for both Mechanical Allodynia and Thermal Hyperalgesia at day0 (5 hours after sciatic nerve injection), day 1, day 3, day 7, day 10, day 14 and day 21 post drug injection.
For Mechanical Allodynia, Paw withdrawal threshold (PWT) values were converted to percent of maximum possible effect (% MPE), according to the formula:
% MPE=(post-drug infiltration threshold−baseline post-ligation threshold)/(pre-ligation threshold−baseline post-ligation threshold)×100
Values are expressed as mean±SD. The percent maximum possible effect data were used to calculate the respective ED50 values of clonidine and clonidine combinations using linear regression.

[3] = Experimental: as §3
[4] = system: thermal hyperalgesia in rats with partial ligation of sciatic nerve; conditions: ligated side
Description: as §1, §2
as §3, with “Different mixtures of saline and alpha-2-adrenergic agonist were then injected in a total volume of 0.3 ml.” left out
Values are expressed as mean±SD.

[5] = system: neuropathic pain
Description: The patient was then referred to the Pain Clinic to benefit from neuraxial analgesia (either epidural or intrathecal catheter placement). However, long-term spinal catheter is not devoid of side effects, both related to the technique, especially the risk of infection and to the drugs used.

[6] = ipsilateral and contralateral, compared to saline controls (p<0.001)
[7] = one week after single peripheral nerve injection at the injury site, 30 mg as printed

SMILES: Clc1cccc(Cl)c1NC1=NCCN1 [clonidine, N-(2,6-dichlorophenyl)-4,5-dihydro-1H-imidazol-2-amine]
- mean number of pixels in a fixed area occupied by pCREB-IR cells in the dorsal horn [1, 6]: significantly reduced
- mean optical density in a fixed area occupied by pCREB-IR cells in the dorsal horn [1, 6]: significantly reduced
- increase in pCREB-IR cells in the ipsilateral dorsal horn [1, 7]: dramatically suppressed
- number of pCREB-IR cells in the contralateral dorsal horn [1, 7]: markedly reduced
- PWT values (Paw Withdrawal threshold) ([2]; intramuscular (IM) clonidine 30 μg, D0 (5 h)): 2.6 ± 1.8 g
- PWT values (Paw Withdrawal threshold) ([2]; intramuscular (IM) clonidine 30 μg, D1): 7.9 ± 4.2 g
- PWT values (Paw Withdrawal threshold) ([2]; intramuscular (IM) clonidine 30 μg, D3): 4.3 ± 2.8 g
- PWT values (Paw Withdrawal threshold) ([2]; intramuscular (IM) clonidine 30 μg, D7): 5.2 ± 2.8 g
- PWT values (Paw Withdrawal threshold) ([2]; intramuscular (IM) clonidine 30 μg, D10): 3.6 ± 2.3 g
- PWT values (Paw Withdrawal threshold) ([2]; intramuscular (IM) clonidine 30 μg, D14): 2.0 ± 3.3 g
- PWT values (Paw Withdrawal threshold) ([2]; intramuscular (IM) clonidine 30 μg, D21): 3.6 ± 1.4 g
- peak effect on mechanical allodynia, day post injection ([2]; peripheral sciatic block 3 to 30 μg, four to six weeks after nerve injury): 7 days
- Maximal effect in alleviating Mechanical Allodynia ([2]; sciatic block 3 μg, at D1): 34.2±5.1 % MPE
- Maximal effect in alleviating Mechanical Allodynia ([2]; sciatic block 15 μg, at D3): 40.5±6.4 % MPE
- Maximal effect in alleviating Mechanical Allodynia ([2]; sciatic block 30 μg, at D7): 76.6±9.2 % MPE
- PWT values (Paw Withdrawal threshold) ([2]; sciatic block (SB) 3 μg, D0 (5 h)): 4.7 ± 4 g
- PWT values (Paw Withdrawal threshold) ([2]; sciatic block (SB) 3 μg, D1): 12.0 ± 4 g
- PWT values (Paw Withdrawal threshold) ([2]; sciatic block (SB) 3 μg, D3): 10.3 ± 5 g
- PWT values (Paw Withdrawal threshold) ([2]; sciatic block (SB) 3 μg, D7): 8.2 ± 4 g
- PWT values (Paw Withdrawal threshold) ([2]; sciatic block (SB) 3 μg, D10): 7.0 ± 3 g
- PWT values (Paw Withdrawal threshold) ([2]; sciatic block (SB) 3 μg, D14): 5.0 ± 2 g
- PWT values (Paw Withdrawal threshold) ([2]; sciatic block (SB) 3 μg, D21): 4.3 ± 1 g
- PWT values (Paw Withdrawal threshold) ([2]; sciatic block (SB) 15 μg, D0 (5 h)): 4.8 ± 2 g
- PWT values (Paw Withdrawal threshold) ([2]; sciatic block (SB) 15 μg, D1): 12.6 ± 6 g
- PWT values (Paw Withdrawal threshold) ([2]; sciatic block (SB) 15 μg, D3): 12.9 ± 5 g
- PWT values (Paw Withdrawal threshold) ([2]; sciatic block (SB) 15 μg, D7): 8.8 ± 3 g
- PWT values (Paw Withdrawal threshold) ([2]; sciatic block (SB) 15 μg, D10): 9.7 ± 4 g
- PWT values (Paw Withdrawal threshold) ([2]; sciatic block (SB) 15 μg, D14): 6.4 ± 3 g
- PWT values (Paw Withdrawal threshold) ([2]; sciatic block (SB) 15 μg, D21): 3.7 ± 1 g
- PWT values (Paw Withdrawal threshold) ([2]; sciatic block (SB) 30 μg, D0 (5 h)): 9.3 ± 6 g
- PWT values (Paw Withdrawal threshold) ([2]; sciatic block (SB) 30 μg, D1): 14.7 ± 10 g
- PWT values (Paw Withdrawal threshold) ([2]; sciatic block (SB) 30 μg, D3): 23.7 ± 11 g
- PWT values (Paw Withdrawal threshold) ([2]; sciatic block (SB) 30 μg, D7): 23.0 ± 7 g
- PWT values (Paw Withdrawal threshold) ([2]; sciatic block (SB) 30 μg, D10): 11.9 ± 3 g
- PWT values (Paw Withdrawal threshold) ([2]; sciatic block (SB) 30 μg, D14): 11.4 ± 4 g
- PWT values (Paw Withdrawal threshold) ([2]; sciatic block (SB) 30 μg, D21): 7.8 ± 3 g
- effect of single peripheral sciatic block on mechanical allodynia (in words) ([2]; single sciatic block, neuropathic rats): significantly alleviated mechanical allodynia
- maximal antiallodynic effect ([2]; systemic injection (IM) 30 μg, at day 0 (5 hours post-sciatic blockade)): 20.7±5.7 % MPE
- sedation ([3]; after clonidine injection in rats): mild transitory sedation
- motor blockade or motor deficit ([3]; peripheral sciatic nerve block in rats): did not result into motor blockade or subsequent motor deficit
- effect of peripheral nerve block on thermal hyperalgesia (in words) [4]: alleviated the thermal hyperalgesia in a dose-related manner
- duration of strong alleviation of neuropathic pain after a single femoral block injection ([5]; clonidine alone): more than ten
- onset of the antihyperalgesic effect ([5]; clonidine alone, femoral block): four to five
- efficacy of clonidine alone versus initial mixture ([5]; femoral block, local anesthetic and steroid withdrawn): as effective as previous combination
- tolerance on repetitive blocks ([5]; repetitive peripheral nerve blocks in the cancerous patient): without apparition of tolerance
